This note sets out measurements from patent US9632088B2, “Methods and compositions for gamma-secretase assay” (MEMORIAL SLOAN-KETTERING CANCER CENTER, priority 2010, dated 2017).

Each structure is given as a SMILES string.

The target of assay [1] is T1, γ-secretase (HeLa membrane) (Homo sapiens, UniProt P49768).
T1 construct: host or cells: HeLa-S3 cells, total membrane fraction
Briefly: In vitro N1-Sb1 γ-secretase assay (ALPHA detection with SM320), HeLa membrane. As to conditions: 0.25% CHAPSO; for IC50: read-out: IC50 in inhibiting N1-Sb1 cleavage. It is filed as biochemical. The procedure: (§1) HeLa membrane fraction was isolated from HeLa-S3 cells (National Cell Culture Center). The cell pellet was resuspended in Buffer A (50 mM MES, 150 mM KCl, 5 mM CaCl2, 5 mM MgCl2) and lysed by passage through a French Press. N2a cells (murine neuroblastoma cells) over-expressing wild-type PS1, or mutants M146L or E280A, were obtained from Dr. Sangram Sisodia (University of Chicago, Chicago, Ill.). These cells were maintained in 50% Dulbecco's modified Eagle's medium high glucose, 50% Opti-Mem Reduced Serum Media, and 10% fetal calf serum. Cultured cells were pelleted by centrifugation and resuspended in hypotonic buffer (40 mM Tris, pH 7.4, 10 mM NaCl, 1 mM EDTA, and 0.5 mM DTT) for 20 minutes before being lysed with a dounce homogenizer. Nuclear debris from the HeLa and N2a cells were pelleted at 3000 rpm for 30 minutes. The resulting supernatants were ultracentrifuged at 100,000×g for 1 hour. The pellet that contained total cell membrane was resuspended in Buffer A. Mouse brains overexpressing knock-in wild type or M146V PS1 (gift from Dr. Hui Zheng, Amylin Pharmaceuticals, San Diego, Calif.) were homogenized with dounce homogenizer. The cell lysate was centrifuged at 3000 rpm for 30 minutes. The supernatants were ultracentrifuged at 100,000×g for 1 hour. Protein concentration was determined with the DC Protein Assay Kit according to the manufacturer's instructions (Bio-Rad, Hercules, Calif.).
An in vitro γ-secretase assay using a novel recombinant APP-derived substrate (termed “Sb4”) is disclosed in co-pending application U.S. Ser. No. 12/776,141. In the present assay based on a Notch-derived substrate, N1-Sb1 was incubated with the cell membrane fraction, prepared as described above, in the presence of 0.25% CHAPSO and 1×PIPES buffer (50 mM PIPES, pH 7.0, 150 mM KCl, 5 mM CaCl2, 5 mM MgCl2. The reaction was incubated at 37° C. for 2 hours. The Perkin Elmer AlphaScreen™ detection system was employed to assay for Notch cleavage. AlphaScreen (PerkinElmer Life and Analytical Sciences, Shelton, Conn.) is a bead based non-radioactive Amplified Luminescent Proximity Homogeneous Assay (ALPHA). When a biological interaction brings the beads together, a cascade of chemical reactions acts to produce a greatly amplified signal. Specifically, upon laser excitation, a photosensitizer in the “Donor” bead converts ambient (triplet) oxygen to the more reactive singlet state. […] As a result no fluorescence signal at 520-620 nm is produced.
In the present system, antibody SM320, Protein A-conjugated acceptor beads, and Streptavidin-conjugated donor beads (PerkinElmer) were added to the reaction at a final concentration of 0.2 μg/ml, 2.5 μg/ml and 5 μg/ml, respectively (diagrammed in FIG. 5A). […] The ALPHA signal was detected using the Envision plate reader (Perkin Elmer). The reactions were excited at 680 nm and signal was detected at 615 nm.
HeLa membrane was incubated with N1-Sb1 substrate in the presence of 0.25% CHAPSO. The γ-secretase cleavage product (cN1-Sb1) was detected by the PerkinElmer proximity assay (ALPHA) using the SM320 antibody, Protein A-conjugated acceptor-beads (which bind SM320) and streptavidin-conjugated donor-beads (which bind biotin) (FIG. 5A). cN1-Sb1 levels in DMSO-treated assay was 10-fold higher than in the presence of the inhibitor L-685,458 (L458; structure shown below)-treated assay. […]

Assay [2] has as its target T2, wild-type PS1 γ-secretase (Homo sapiens, UniProt P49768).
T2 construct: total membrane
Kind of assay: In vitro N1-Sb1 γ-secretase assay, membrane of N2a cells expressing wild-type PS1. To be noted: wild-type PS1; read-out: IC50 of γ-secretase inhibition (N1-Sb1 cleavage). It is filed as biochemical, murine. The procedure:
as §1
(§2) An in vitro γ-secretase assay using a novel recombinant APP-derived substrate (termed “Sb4”) is disclosed in co-pending application U.S. Ser. No. 12/776,141. In the present assay based on a Notch-derived substrate, N1-Sb1 was incubated with the cell membrane fraction, prepared as described above, in the presence of 0.25% CHAPSO and 1×PIPES buffer (50 mM PIPES, pH 7.0, 150 mM KCl, 5 mM CaCl2, 5 mM MgCl2. The reaction was incubated at 37° C. for 2 hours. The Perkin Elmer AlphaScreen™ detection system was employed to assay for Notch cleavage. AlphaScreen (PerkinElmer Life and Analytical Sciences, Shelton, Conn.) is a bead based non-radioactive Amplified Luminescent Proximity Homogeneous Assay (ALPHA). When a biological interaction brings the beads together, a cascade of chemical reactions acts to produce a greatly amplified signal. Specifically, upon laser excitation, a photosensitizer in the “Donor” bead converts ambient (triplet) oxygen to the more reactive singlet state. The singlet state oxygen molecules diffuse into the solvent, and may react with a thioxene derivative in the Acceptor bead if nearby, generating chemiluminescence at 370 nm that further activates fluorophores contained in the same bead. The fluorophores subsequently emit light at 520-620 nm. In the absence of a specific biological interaction, the singlet state oxygen molecules produced by the donor bead go undetected without the close proximity of the acceptor bead. As a result no fluorescence signal at 520-620 nm is produced.
(§3) In the present system, antibody SM320, Protein A-conjugated acceptor beads, and Streptavidin-conjugated donor beads (PerkinElmer) were added to the reaction at a final concentration of 0.2 μg/ml, 2.5 μg/ml and 5 μg/ml, respectively (diagrammed in FIG. 5A). The reaction was incubated in the dark at room-temperature for 4 hours. The ALPHA signal was detected using the Envision plate reader (Perkin Elmer). The reactions were excited at 680 nm and signal was detected at 615 nm.
(§4) The effects of PS1 FAD mutations on Notch cleavage were determined using the new γ-secretase assay described in Example 2. The activities of two PS1 FAD mutations—PS1 M146L and E280A were compared against wild-type PS1 (WT), which has been previously studied (25). Total membrane was isolated from N2a cells that stably express WT, M146L, or E280A mutants. N1-Sb1 was incubated with these membranes and the resulting cN1-Sb1 was detected with SM320. […] The M146L and E280A mutants had 40% and 14% activity remaining, respectively, compared to the activity of the wild type (FIG. 7A). […]

For the next assay, the target named is T3, M146L PS1 γ-secretase (Homo sapiens, UniProt P49768, M146L).
T3 construct: total membrane
Kind of assay: In vitro N1-Sb1 γ-secretase assay, membrane of N2a cells expressing M146L PS1. It is filed as biochemical, murine. As to conditions: M146L PS1; read-out: IC50 of γ-secretase inhibition (N1-Sb1 cleavage). The procedure:
as §1, §2, §3, §4

For a further assay, the target named is T4, E280A PS1 γ-secretase (Homo sapiens, UniProt P49768, E280A).
T4 construct: total membrane
Briefly: In vitro N1-Sb1 γ-secretase assay, membrane of N2a cells expressing E280A PS1. The format is biochemical, murine. As to conditions: E280A PS1; read-out: IC50 of γ-secretase inhibition (N1-Sb1 cleavage). The procedure:
as §1, §2, §3, §4

`CC(C)C[C@H](NC(=O)[C@H](Cc1ccccc1)C[C@@H](O)[C@H](Cc1ccccc1)NC(=O)OC(C)(C)C)C(=O)N[C@@H](Cc1ccccc1)C(N)=O` [L458]: the “cN1-Sb1 levels in DMSO-treated assay versus inhibitor-treated assay” value in assay [1] (fold higher in DMSO) was 10 fold. The IC50 in assay [1] is 0.7 nM; in assay [2] it was 0.5 nM; on M146L PS1 γ-secretase it was 0.45 nM; on E280A PS1 γ-secretase it was 0.46 nM.

For the compound `CC(NC(=O)Cc1cc(F)cc(F)c1)C(=O)NC1N=C(c2ccccc2)c2ccccc2N(C)C1=O` (stereo not drawn) [Compound E], the IC50 in assay [1] was determined as 1 nM; in assay [2] it was 0.78 nM; at M146L PS1 γ-secretase, 0.76 nM; on E280A PS1 γ-secretase it was 0.71 nM.
